What was measured:
[1] = test system: Ba/F3-EML4-ALK wild type cell line; test: EML4-ALK Ba/F3 cell proliferation assay; format: cell-based; conditions: 48 hours incubation, read-out: EML4-ALK Ba/F3 cell proli. IC50
Protocol: The EML4-ALK wild-type gene (variant 1) was synthesized at GenScript and cloned into pCDH-CMV-MCS-EF1-Puro plasmid (System Biosciences, Inc). Ba/F3-EML4-ALK wild type cell line was generated by infecting Ba/F3 cells with lentivirus containing EML4-ALK wide-type. Stable cell lines were selected by puromycin treatment, followed by IL-3 withdrawal. 5000 cells were seeded in 384 well white plate overnight before compound treatment. Cell proliferation was measured using CellTiter-Glo luciferase-based ATP detection assay (Promega) following the manufactures's protocol after 48 hours of various concentration of compound incubation. IC50 determinations were performed using GraphPad Prism software (GraphPad, Inc., San Diego, Calif.).

[2] = test system: KM12 cells; test: Caspase activity assay; format: cell-based; conditions: 72 hours, caspase3 glo / PARP immunoblot
Protocol: KM12 cells were maintained in DMEM medium supplemented with 10% fetal bovine serum and antibiotics. 500,000 cells were seeded in 12-well plate and various concentration of compounds were introduced for 72 hours For staurosporine treatment, 500 nM of STS were added at time of 60 hours and incubation of 12 hours as a positive control. All the cells were collected and washed with 1×PBS twice and then lysed in a lysis buffer (20 mM HEPES, 150 mM NaCl, 10 mM KCl, 5 mM EDTA, 1% NP40) supplemented with Halt protease and phosphatase inhibitors (Thermo Scientific). For caspase assays, around 20 μL (20 μg) of cell lysate were incubated with 20 μL, of caspase3 glo reagent (Promega), measuring enzyme activity by the release of luminescence after 20 min incubation at 37° C. For western blotting, cell lysates were boiled and analyzed by SDS-PAGE/immunoblotting using PARP, or actin antibodies.

Structure (SMILES)	IC50 [1] [nM]	apoptosis of KM 12 cells [2]
C[C@@H]1CNC(=O)c2cnn3ccc(nc23)N[C@H](C)c2cc(F)ccc2O1 [Example 92, (7R,13R)-11-fluoro-7,13-dimethyl-6,7,13,14-tetrahydro-1,15-ethenopyrazolo[4,3-f][1,4,8,10]benzoxatriazacyclotridecin-4(5H)-one]	78.6	
CN1Cc2cc(F)ccc2OCCNC(=O)c2cnn3ccc1nc23 [Example 20, 11-fluoro-14-methyl-6,7,13,14-tetrahydro-1,15-ethenopyrazolo[4,3-f][1,4,8,10]benzoxatriazacyclo-tridecin-4(5H)-one]		induced apoptosis
C[C@H]1Nc2ccn3ncc(c3n2)C(=O)NCCOc2ccc(F)cc21 [Example 51-1, (13R)-11-fluoro-13-methyl-6,7,13,14-tetrahydro-1,15-ethenopyrazolo[4,3-f][1,4,8,10]benzoxatriazacyclotridecin-4(5H)-one]	248	
C[C@H]1CNC(=O)c2cnn3ccc(nc23)N[C@H](C)c2cc(F)ccc2O1 [Example 93, (7S,13R)-11-fluoro-7,13-dimethyl-6,7,13,14-tetrahydro-1,15-ethenopyrazolo[4,3-f][1,4,8,10]benzoxatriazacyclotridecin-4(5H)-one]	21.1	
